Measurements published in US20240425491A1, “HETEROARYL COMPOUNDS USEFUL IN THE TREATMENT OF COGNITIVE DISORDERS” (University College Cardiff Consultants Limited, priority 2021, published 2024).
pKi: −log10 of the molar value.

Columns and labels:
[1] = target: T1, human recombinant GABAAR containing α5β3γ2 subunits (benzodiazepine site) (Homo sapiens, UniProt P18507+P31644); experiment: In vitro radioligand binding assay (α5-GABAAR Ki); details: inhibition of [3H]Ro15-1788 binding, membranes of L(tk−) cells expressing human α5β3γ2; read-out: α5-GABAAR Ki
T1 construct: expressed in transfected cells; host or cells: mouse L(tk−) cells, dexamethasone-inducible vector pMSGneo
T1 sequence (P31644 32-462): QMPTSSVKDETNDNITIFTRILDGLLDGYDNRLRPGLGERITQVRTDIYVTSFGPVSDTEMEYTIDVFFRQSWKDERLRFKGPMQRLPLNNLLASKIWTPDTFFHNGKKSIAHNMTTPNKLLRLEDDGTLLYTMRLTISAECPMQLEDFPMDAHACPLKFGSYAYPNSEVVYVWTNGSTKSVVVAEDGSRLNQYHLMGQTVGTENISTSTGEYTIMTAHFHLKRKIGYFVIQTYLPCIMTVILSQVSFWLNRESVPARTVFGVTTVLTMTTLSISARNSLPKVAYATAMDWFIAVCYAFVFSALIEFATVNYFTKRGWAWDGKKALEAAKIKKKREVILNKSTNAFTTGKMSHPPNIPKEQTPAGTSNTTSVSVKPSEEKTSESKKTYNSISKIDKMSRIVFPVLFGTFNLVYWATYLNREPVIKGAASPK
T1 sequence (P28472 26-473 partner): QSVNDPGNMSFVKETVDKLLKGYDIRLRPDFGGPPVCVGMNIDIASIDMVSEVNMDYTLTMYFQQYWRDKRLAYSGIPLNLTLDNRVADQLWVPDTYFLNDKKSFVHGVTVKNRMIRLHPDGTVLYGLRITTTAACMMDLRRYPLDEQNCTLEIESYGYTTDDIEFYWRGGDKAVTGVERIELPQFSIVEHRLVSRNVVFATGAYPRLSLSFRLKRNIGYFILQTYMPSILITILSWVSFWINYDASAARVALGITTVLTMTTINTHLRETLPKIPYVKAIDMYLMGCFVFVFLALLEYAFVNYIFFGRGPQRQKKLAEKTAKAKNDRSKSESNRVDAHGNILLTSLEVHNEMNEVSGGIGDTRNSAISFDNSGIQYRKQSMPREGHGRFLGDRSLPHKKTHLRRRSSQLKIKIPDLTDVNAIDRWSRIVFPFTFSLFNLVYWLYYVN
T1 sequence (P18507 40-475): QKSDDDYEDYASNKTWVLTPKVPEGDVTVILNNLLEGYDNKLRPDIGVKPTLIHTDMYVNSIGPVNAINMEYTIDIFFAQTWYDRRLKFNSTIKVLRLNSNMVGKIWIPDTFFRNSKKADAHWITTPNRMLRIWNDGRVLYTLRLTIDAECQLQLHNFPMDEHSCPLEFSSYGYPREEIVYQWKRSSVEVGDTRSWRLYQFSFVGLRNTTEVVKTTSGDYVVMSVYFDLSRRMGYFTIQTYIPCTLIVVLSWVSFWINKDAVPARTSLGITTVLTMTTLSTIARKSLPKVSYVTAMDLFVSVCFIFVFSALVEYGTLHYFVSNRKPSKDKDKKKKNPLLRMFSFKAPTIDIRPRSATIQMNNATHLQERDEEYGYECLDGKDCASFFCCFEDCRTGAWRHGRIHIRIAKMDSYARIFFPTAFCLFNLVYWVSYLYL
Outline: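 Displacement of 4 nM [^3H]flumazenil from the benzodiazepine site, read by filtration and scintillation, gave IC50, converted to Ki (Cheng-Prusoff, saturation-derived Kd). Receptor: human α5β3γ2 membranes from L(tk^−) cells, 50 μg protein/well; 1 h, 4° C; TP003 1 μM defined nonspecific binding.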

[2] = target: T2, human α5β3γ2 GABAARs in mouse L(tk−) cells (Homo sapiens, UniProt P18507+P31644); experiment: In vitro electrophysiological recording assay (α5-GABAAR relative efficacy), QPatch; type: cell-based; details: GABA EC10-20
T2 construct: expressed in transfected cells; host or cells: mouse L(tk−) cells, dexamethasone-inducible vector pMSGneo
T2 sequence (P31644 32-462): as the sequence (P31644 32-462) above
T2 sequence (P28472 26-473 partner): as the sequence (P28472 26-473 partner) above
T2 sequence (P18507 40-475): as the sequence (P18507 40-475) above
Source text: Mouse L(tk^−) cells stably expressing human α1β3γ2, α2β3γ2, α3β3γ2, α5β3γ2 GABAARs generated by transfection of the individual subunits in the dexamethasone-inducible expression vector pMSGneo in mouse L(tk^−) cells (Hadingham et al., 1993, Mol. Pharmacol. 43:970-975 and 1993, Mol. Pharmacol. 44:1211-1218) were used for binding and functional assays. For certain compounds, HEK293 cells stable expressing the human α1β3γ2L, α2β3γ2L, α3β3γ2L and α5β3γ2L GABAA receptors were used to evaluate their functional effects in a SyncroPatch electrophysiology assay.
For QPatch electrophysiology testing, 1 μM dexamethasone was added to the culture medium of L(tk^−) cells 24 hours before the recordings were performed. Cells were typically used for electrophysiology experiments 72-96 hours after splitting.
The efficacy of modulators was evaluated using either the automated patch-clamp platform QPatch16 (Sophion, Copenhagen, Denmark) or the SyncroPatch 384i (Nanion Technologies, Germany). Cells were harvested from flasks by enzymatic dissociation and re-suspended in serum-free medium.
For QPatch recordings, all experiments were carried out at room temperature (20-22° C.) using a standard whole cell procedure and physiological solutions. Gigaseals were formed upon execution of a combined suction/voltage protocol with subsequent increased suction leading to the whole-cell configuration. The currents recorded were acquired at 1 KHz and filtered at 0.3 KHz using a Bessel filter. Whole-cell currents were measured at a holding potential of −65 mV.
For QPatch recordings, the extracellular solution contained of (in mM): 145 NaCl, 4 KCl, 1 MgCl2, 2CaCl2, 10 HEPES, 10 D-glucose (pH 7.4), and the intracellular solution consisted of (in mM): 96 KCl, 28 CsCl, 25 KOH, 4.3 CaCl2), 1.4 MgCl2, 10 EGTA, HEPES, 3 MgATP (pH 7.2). The osmolarities of the extracellular and intracellular solutions were 305 and 295 mOsm respectively.
The effects of modulators were evaluated in the presence of a submaximal GABA concentration, giving typically 10-20% activation (GABA EC10-20) of the response elicited by a saturating GABA concentration. For QPatch recordings, to check and ensure baseline current stability before compound addition, five consecutive applications of GABA EC10-20 alone (each application with a 2 s duration, separated by minimum 1 min wash off periods) were performed before compound addition. The test compound was applied using the pipetting system of the QPatch system 1 min at least prior to co-application with GABA EC10-20. For SyncroPatch recordings, GABA EC20 alone was applied three times (1 s long applications, with wash steps in-between) before compound addition. This was followed by a 1-2 min pre-incubation with the test compound and then re-application of GABA EC10-20 in the presence of the compound. Finally, following a further wash step, a saturating concentration of GABA was applied, allowing the accurate evaluation for each cell of the percentage baseline activation elicited by the submaximal GABA applied.
The compounds were first dissolved in DMSO as a 10 mM stock and then further diluted to the testing concentrations so that the final DMSO concentration in the extracellular recording solution was kept constant at 0.1% for the QPatch recordings, or 0.2% for the SyncroPatch recordings.
The % efficacy of modulators was determined from the GABA elicited currents recorded in the presence and absence of the test compound, using the formula:
[((compound peak current−leak)−(GABA peak current−leak))/(GABA peak current−leak)]*100,
where ‘leak’ is the leak baseline current at −65 mV, ‘compound peak current’ is the current elicited by co-application of compound and GABA, and ‘GABA peak current’ is the current elicited by GABA alone during the 5th GABA application. The results were presented as ‘relative efficacy’ for each compound generally at a concentration equal or higher than 100 times their determined Ki. […]

SMILES	pKi [1]	α5-GABAAR Relative Efficacy (to DMCM), Qpatch ([2]; Conc 0.3 μM)	α5-GABAAR Relative Efficacy (to DMCM), Qpatch ([2]; Conc 0.1 μM)	α5-GABAAR Relative Efficacy (to DMCM), Qpatch ([2]; Conc 3 μM)	α5-GABAAR Relative Efficacy (to DMCM), Qpatch ([2]; Conc 1 μM)
COc1nc(-c2ccn3nc(N)nc3c2)ccc1NC(=O)c1c(-c2ccccc2)noc1C.Cl [Example 61, N-[6-(2-Amino-[1,2,4]triazolo[1,5-a]pyridin-7-yl)-2-methoxy-3-pyridyl]-5-methyl-3-phenyl-isoxazole-4-carboxamide hydrochloride]	8.85	−0.85	–	–	–
COc1nc(-n2cnnc2)ccc1NC(=O)c1c(-c2ccccc2)noc1C [Example 62, N-[2-Methoxy-6-(1,2,4-triazol-4-yl)-3-pyridyl]-5-methyl-3-phenyl-isoxazole-4-carboxamide]	8.72	−0.61	–	–	–
COC(=O)c1ncc(-c2ccc(NC(=O)c3c(-c4ccccc4)noc3C)c(OC)n2)cn1 [Example 70, Methyl 5-[6-methoxy-5-[(5-methyl-3-phenyl-isoxazole-4-carbonyl)amino]-2-pyridyl]pyrimidine-2-carboxylate]	9.15	–	−0.89	–	–
COc1ccc(-c2cnc(NC(=O)c3c(-c4ccccc4)noc3C)c(OC)n2)cn1 [Example 71, N-[3-Methoxy-5-(6-methoxy-3-pyridyl)pyrazin-2-yl]-5-methyl-3-phenyl-isoxazole-4-carboxamide]	8.55	−0.94	–	–	–
COc1ncc(-c2cnc(NC(=O)c3c(-c4ccccc4)noc3C)c(OC)n2)cn1 [Example 72, N-[3-Methoxy-5-(2-methoxypyrimidin-5-yl)pyrazin-2-yl]-5-methyl-3-phenyl-isoxazole-4-carboxamide]	8.70	−1.04	–	–	–
CNC(=O)c1ncc(-c2ccc(NC(=O)c3c(-c4ccccc4)noc3C)c(OC)n2)cn1 [Example 75, N-[2-Methoxy-6-[2-(methylcarbamoyl)pyrimidin-5-yl]-3-pyridyl]-5-methyl-3-phenyl-isoxazole-4-carboxamide]	9.22	–	−0.92	–	–
COc1nc(-c2ccc3[nH]c(=O)n(C)c3c2)ccc1NC(=O)c1c(-c2ccccc2)noc1C [Example 77, N-(2-Methoxy-6-(3-methyl-2-oxo-2,3-dihydro-1H-benzo[d]imidazol-5-yl)pyridin-3-yl)-5-methyl-3-phenylisoxazole-4-carboxamide]	7.79	–	–	−0.22	–
COc1nc(-c2cnccc2N)ccc1NC(=O)c1c(-c2ccccc2)noc1C [Example 78, N-(4′-Amino-6-methoxy-[2,3′-bipyridin]-5-yl)-5-methyl-3-phenylisoxazole-4-carboxamide]	9.00	–	−0.42	–	–
COc1nc(-c2cnc3n2CCOC3)ccc1NC(=O)c1c(-c2ccccc2)noc1C [Example 79, N-[6-(6,8-Dihydro-5H-imidazo[2,1-c][1,4]oxazin-3-yl)-2-methoxy-3-pyridyl]-5-methyl-3-phenyl-isoxazole-4-carboxamide]	9.10	–	−0.76	–	–
CCn1nc(-c2nccs2)cc1-c1ccc(NC(=O)c2c(-c3ccccc3)noc2C)c(OC)n1 [Example 80, N-(6-(1-Ethyl-3-(thiazol-2-yl)-1H-pyrazol-5-yl)-2-methoxypyridin-3-yl)-5-methyl-3-phenylisoxazole-4-carboxamide]	7.71	–	–	−0.65	–
COc1nc(-c2cc(C)nc(N)c2)ccc1NC(=O)c1c(-c2ccccc2)noc1C [Example 81, N-(2′-Amino-6-methoxy-6′-methyl-[2,4′-bipyridin]-5-yl)-5-methyl-3-phenylisoxazole-4-carboxamide]	8.10	–	–	–	−1.26
COc1nc(-c2ccnc(N(C)C)c2)ccc1NC(=O)c1c(-c2ccccc2)noc1C [Example 82, N-(2′-(Dimethylamino)-6-methoxy-[2,4′-bipyridin]-5-yl)-5-methyl-3-phenyl-isoxazole-4-carboxamide]	8.10	–	–	–	−0.65
COc1nc(-c2cnn(C3CCCCO3)n2)ccc1NC(=O)c1c(-c2ccccc2)noc1C (stereo not drawn) [Example 84, N-(2-Methoxy-6-(2-(tetrahydro-2H-pyran-2-yl)-2H-1,2,3-triazol-4-yl)pyridin-3-yl)-5-methyl-3-phenylisoxazole-4-carboxamide]	7.97	–	–	−0.51	–
COc1nc(-c2ccncc2N)ccc1NC(=O)c1c(-c2ccccc2)noc1C [Example 86, N-(3′-Amino-6-methoxy-[2,4′-bipyridin]-5-yl)-5-methyl-3-phenylisoxazole-4-carboxamide]	8.49	–	–	–	−0.65
COc1nc(-c2cncc(-n3cccn3)c2)ccc1NC(=O)c1c(-c2ccccc2)noc1C [Example 90, N-(6-Methoxy-5′-(1H-pyrazol-1-yl)-[2,3′-bipyridin]-5-yl)-5-methyl-3-phenylisoxazole-4-carboxamide]	8.47	–	–	–	−0.58
COc1nc(-c2ccc3nnn(C)c3c2)ccc1NC(=O)c1c(-c2ccccc2)noc1C [Example 91, N-(2-Methoxy-6-(1-methyl-1H-benzo[d] [1,2,3]triazol-6-yl)pyridin-3-yl)-5-methyl-3-phenylisoxazole-4-carboxamide]	8.00	–	–	−0.45	–
COc1nc(-c2cnc(N3CCCC(CO)C3)nc2)ccc1NC(=O)c1c(-c2ccccc2)noc1C (stereo not drawn) [Example 92, N-(6-(2-(3-(Hydroxymethyl)piperidin-1-yl)pyrimidin-5-yl)-2-methoxypyridin-3-yl)-5-methyl-3-phenylisoxazole-4-carboxamide]	8.52	−0.66	–	–	–
COc1nc(-c2cncnc2OC)ccc1NC(=O)c1c(-c2ccccc2)noc1C [Example 93, N-(2-Methoxy-6-(4-methoxypyrimidin-5-yl)pyridin-3-yl)-5-methyl-3-phenyl-isoxazole-4-carboxamide]	8.09	–	–	–	−0.73
COc1nc(-c2cncs2)ccc1NC(=O)c1c(-c2ccccc2)noc1C [Example 94, N-(2-Methoxy-6-(thiazol-5-yl)pyridin-3-yl)-5-methyl-3-phenylisoxazole-4-carboxamide]	7.66	–	–	−0.50	–
COc1nc(-c2cncc(C(=O)N(C)C)c2)ccc1NC(=O)c1c(-c2ccccc2)noc1C [Example 95, N-(5′-(Dimethylcarbamoyl)-6-methoxy-[2,3′-bipyridin]-5-yl)-5-methyl-3-phenyl-isoxazole-4-carboxamide]	8.85	−0.66	–	–	–
COc1nc(-c2ccc3nncn3c2)ccc1NC(=O)c1c(-c2ccccc2)noc1C [Example 96, N-(6-([1,2,4] Triazolo[4,3-a]pyridin-6-yl)-2-methoxypyridin-3-yl)-5-methyl-3-phenylisoxazole-4-carboxamide]	8.72	−0.52	–	–	–
